Tested on: rat testicular cell homogenate
Experiment: Incubation of rat testicular homogenate with pregnenolone and extract, capillary gas chromatography of steroids
Assay type: biochemical
Details: gas capillary analysis
Method: To preliminary assess the activity of Eurycoma longifolia, an extract of it was prepared and incubated with rat testicular cell homogenate. After the incubation was completed, the samples were measured using capillary gas chromatography to measure the presence of various hormones. 500 g of the dried pulverized root was boiled exhaustively with 5 L of distilled water for 24 hours. The extract was concentrated to a 40% mass, allowed to cool to room temperature, filtered using a 4 micron filter, then centrifuged at 10,000 rpm for five minutes. Supernatant was collected and freeze-dried yielding yellow brown colored fine powder. Tris/sucrose buffer, PH 7.4 was used as homogenizing buffer and medium for suspending the testicular homogenate. This buffer, consisting of 0.25M sucrose, 0.05M Tris-HCL, 0.025M KCl and 0.005M MgCl2H2O was prepared fresh and kept cool at 4° C. Sprague Dawley albino male rats were sacrificed by stunning followed by cervical dislocation. Testes were removed quickly, pooled and homogenized in Tris/sucrose buffer (10% w/v) using homogenizer. Homogenate was then centrifuged at 1000×g (3000 rpm) for 20 minutes to remove the nuclei and cell debris. Post-nuclei suspension was used for incubation studies; a portion of the suspension was reserved for protein determination. 10 ml of the testes homogenate was first treated with 5 ml ethyl acetate before incubation process. […]

Question: With `CC(=O)[C@H]1CC[C@H]2[C@@H]3CC=C4C[C@@H](O)CC[C@]4(C)[C@H]3CC[C@]12C` [Prenenolone, Pregnenolone] as the compound, how does the “An α” value (16-androstene steroid metabolite (pheromone)) read?
Answer: 1.62

Question: And the “An β Andien β” value (16-androstene steroid metabolites (pheromones))?
Answer: 1.99
